This is an account of results in patent US9908831B2, “Resist composition, method for forming resist pattern, polyphenolic compound for use in the composition, and alcoholic compound that can be derived therefrom” (Mitsubishi Gas Chemical Company, Inc., priority 2011, dated 2018).

Assay type in all cases: physicochemical
Data set [1] in a line: Thermal decomposition temperature by DSC. The conditions noted are these: 10° C./min to 500° C., nitrogen gas stream. Here is the method:
(3) Thermal Decomposition Temperature
The apparatus EXSTAR6000DSC (trade name) manufactured by SII NanoTechnology Inc. was used. About 5 mg of each sample was placed in a non-sealed container made of aluminum, and the temperature was raised to 500° C. at the rate of temperature rise of 10° C./min in a nitrogen gas stream (30 mL/min). The temperature corresponding to a descending peak appeared in the baseline was defined as the thermal decomposition temperature.
Background: Differential scanning calorimetry records heat flow against a reference as temperature is scanned.

Data set [2] is described as follows: Glass transition temperature by DSC. The conditions noted are these: 10° C./min to 300° C., second heating after quench, nitrogen gas stream. Here is the method: (4) Glass Transition Temperature
The apparatus EXSTAR6000DSC (trade name) manufactured by SII NanoTechnology Inc. was used. About 5 mg of each sample was placed in a non-sealed container made of aluminum, and the temperature was raised to 300° C. at the rate of temperature rise of 10° C./min in a nitrogen gas stream (30 mL/min). After the non-sealed container made of aluminum was quenched, again the temperature was raised to 300° C. at the rate of temperature rise of 10° C./min in a nitrogen gas stream (30 mL/min), thereby performing DSC measurement. The temperature corresponding to the middle point (where the specific heat was changed into the half) of a region in which a discontinuous portion appeared in the baseline was defined as the glass transition point.

Data set [3] is described as follows: Solubility of compound in methyl ethyl ketone (MEK). To be noted: dissolution amount in MEK at 23° C., visual. Here is the method: (1) Solubility of Compound in Methyl Ethyl Ketone (MEK)
The solubility of the compound in MEK was evaluated according to the following standard using the dissolution amount in MEK at 23° C. For the measurement of the dissolution amount, the compound was precisely weighed in a test tube at 23° C.; and the target solvent was added to the compound so that a predetermined concentration of the liquid to be obtained was set; a ultrasonic wave was applied to the liquid in an ultrasonic washing machine for 30 minutes; and the state of the resulting liquid was visually evaluated.
Evaluation A: 50% by weight or more
Evaluation B: 10% by weigh or more and less than 50% by weight
Evaluation C: less than 10% by weight

Data set [4] in a line: Solubility test of compound in safe solvent. The conditions noted are these: 23° C., visual. The method, then: (2) Solubility Test of Compound in Safe Solvent
The solubility of the compound in PGME and PGMEA was evaluated according to the following standard using the dissolution amount in each solvent. For the measurement of the dissolution amount, the compound was precisely weighed in a test tube at 23° C.; and the target solvent was added to the compound so that a predetermined concentration of the liquid to be obtained was set; a ultrasonic wave was applied to the liquid in an ultrasonic washing machine for 30 minutes; and the state of the resulting liquid was visually evaluated.
A: 5.0% by weight≦dissolution amount
B: 3.0% by weight≦dissolution amount<5.0% by weight
C: dissolution amount<3.0% by weight

The molecule `Oc1ccc2c(C(c3ccc(-c4ccc(C(c5c(O)ccc6cc(O)ccc56)c5c(O)ccc6cc(O)ccc56)cc4)cc3)c3c(O)ccc4cc(O)ccc34)c(O)ccc2c1` [BisN-13] came in with a thermal decomposition temperature in data set [1] of 245 °C. The glass transition point in data set [2] amounted to 130 °C. Moreover, the “solubility in MEK” value in data set [3] is “B (Evaluation B: 10% by weigh or more and less than 50% by weight)”. Further, in data set [4], the “Solubility test of compound in safe solvent PGME” value is on record as “A (A: 5.0% by weight≦dissolution amount)” and the “Solubility test of compound in safe solvent PGMEA” value is “A (A: 5.0% by weight≦dissolution amount)”.
Take `Oc1ccc2c(C(c3cc(C(c4c(O)ccc5cc(O)ccc45)c4c(O)ccc5cc(O)ccc45)cc(C(c4c(O)ccc5cc(O)ccc45)c4c(O)ccc5cc(O)ccc45)c3)c3c(O)ccc4cc(O)ccc34)c(O)ccc2c1` [BisN-14]: in data set [1], the thermal decomposition temperature was 245 °C. This molecule returned a glass transition point in data set [2] of 130 °C. Moreover, the “solubility in MEK” value in data set [3] was “B (Evaluation B: 10% by weigh or more and less than 50% by weight)”. Further, in data set [4], the “Solubility test of compound in safe solvent PGME” value is on record as “A (A: 5.0% by weight≦dissolution amount)” and the “Solubility test of compound in safe solvent PGMEA” value is “A (A: 5.0% by weight≦dissolution amount)”.
Consider `Oc1ccc2c3c(ccc2c1)Oc1ccc2cc(O)ccc2c1C3c1ccc(-c2ccccc2)cc1` [XBisN-1], for which, in data set [1], the thermal decomposition temperature came to 410 °C. In addition, in data set [2], the glass transition point is 152 °C. The “solubility in MEK” value in data set [3] is “A (Evaluation A: 50% by weight or more)”. Further, in data set [4], the “Solubility test of compound in safe solvent PGME” value is on record as “A (A: 5.0% by weight≦dissolution amount)” and the “Solubility test of compound in safe solvent PGMEA” value was “A (A: 5.0% by weight≦dissolution amount)”.
Regarding `Oc1ccc2ccc3c(c2c1)C(c1ccc(-c2ccccc2)cc1)c1c(ccc2ccc(O)cc12)O3` [XBisN-2], the thermal decomposition temperature in data set [1] was found to be 410 °C. For the same molecule, the glass transition point in data set [2] is 152 °C. Besides, in data set [3], the “solubility in MEK” value is “B (Evaluation B: 10% by weigh or more and less than 50% by weight)”. Moreover, in data set [4], the “Solubility test of compound in safe solvent PGME” value was “A (A: 5.0% by weight≦dissolution amount)” and the “Solubility test of compound in safe solvent PGMEA” value is “A (A: 5.0% by weight≦dissolution amount)”.
The molecule `Oc1cccc2c3c(ccc12)C(c1ccc(-c2ccccc2)cc1)c1ccc2c(O)cccc2c1O3` [XBisN-3] had a thermal decomposition temperature in data set [1] of 410 °C. This molecule also showed a glass transition point in data set [2] of 152 °C. The “solubility in MEK” value in data set [3] was “B (Evaluation B: 10% by weigh or more and less than 50% by weight)”. Further, in data set [4], the “Solubility test of compound in safe solvent PGME” value is “A (A: 5.0% by weight≦dissolution amount)” and the “Solubility test of compound in safe solvent PGMEA” value was “A (A: 5.0% by weight≦dissolution amount)”.
As for `Oc1cccc2c3c(ccc12)Oc1ccc2c(O)cccc2c1C3c1ccc(-c2ccccc2)cc1` [XBisN-4], the thermal decomposition temperature in data set [1] worked out at 410 °C. In addition, the glass transition point in data set [2] came out at 152 °C. Further, the “solubility in MEK” value in data set [3] was “B (Evaluation B: 10% by weigh or more and less than 50% by weight)”. Further, in data set [4], the “Solubility test of compound in safe solvent PGME” value was “A (A: 5.0% by weight≦dissolution amount)” and the “Solubility test of compound in safe solvent PGMEA” value is recorded as “A (A: 5.0% by weight≦dissolution amount)”.
In turn, `Oc1ccc2ccc3c(c2c1)Oc1c(ccc2ccc(O)cc12)C3c1ccc(-c2ccccc2)cc1` [XBisN-5] registered a thermal decomposition temperature in data set [1] of 410 °C. In data set [2], the glass transition point came out at 152 °C. Also, the “solubility in MEK” value in data set [3] is “B (Evaluation B: 10% by weigh or more and less than 50% by weight)”. For the same molecule, in data set [4], the “Solubility test of compound in safe solvent PGME” value is recorded as “A (A: 5.0% by weight≦dissolution amount)” and the “Solubility test of compound in safe solvent PGMEA” value is recorded as “A (A: 5.0% by weight≦dissolution amount)”.
Molecule `Oc1cc2ccccc2c2c1Oc1c(O)cc3ccccc3c1C2c1ccc(-c2ccccc2)cc1` [XBisN-6] gave a thermal decomposition temperature in data set [1] of 410 °C. This molecule also yielded a glass transition point in data set [2] of 152 °C. The “solubility in MEK” value in data set [3] was “B (Evaluation B: 10% by weigh or more and less than 50% by weight)”. For the same molecule, in data set [4], the “Solubility test of compound in safe solvent PGME” value was “A (A: 5.0% by weight≦dissolution amount)” and the “Solubility test of compound in safe solvent PGMEA” value was “A (A: 5.0% by weight≦dissolution amount)”.
Regarding `Oc1ccc2c3c(ccc2c1)Oc1ccc2cc(O)ccc2c1C3c1cccc2ccccc12` [XBisN-7], the thermal decomposition temperature in data set [1] was 415 °C. In data set [2], the glass transition point amounted to 155 °C. In addition, the “solubility in MEK” value in data set [3] is “B (Evaluation B: 10% by weigh or more and less than 50% by weight)”. Also, in data set [4], the “Solubility test of compound in safe solvent PGME” value was “A (A: 5.0% by weight≦dissolution amount)” and the “Solubility test of compound in safe solvent PGMEA” value was “A (A: 5.0% by weight≦dissolution amount)”.
`Oc1ccc2c3c(ccc2c1)Oc1ccc2cc(O)ccc2c1C3c1cc2ccccc2c2ccccc12` [XBisN-8] showed a thermal decomposition temperature in data set [1] of 415 °C. This molecule registered a glass transition point in data set [2] of 155 °C. Further, the “solubility in MEK” value in data set [3] was “B (Evaluation B: 10% by weigh or more and less than 50% by weight)”. In data set [4], the “Solubility test of compound in safe solvent PGME” value is recorded as “A (A: 5.0% by weight≦dissolution amount)” and the “Solubility test of compound in safe solvent PGMEA” value is listed as “A (A: 5.0% by weight≦dissolution amount)”.
As to `Oc1ccc2c3c(ccc2c1)Oc1ccc2cc(O)ccc2c1C3c1cc2cccc3ccc4cccc1c4c32` [XBisN-9], the thermal decomposition temperature in data set [1] was found to be 420 °C. Moreover, the glass transition point in data set [2] turned out to be 155 °C. Further, the “solubility in MEK” value in data set [3] was “B (Evaluation B: 10% by weigh or more and less than 50% by weight)”. Besides, in data set [4], the “Solubility test of compound in safe solvent PGME” value is recorded as “A (A: 5.0% by weight≦dissolution amount)” and the “Solubility test of compound in safe solvent PGMEA” value is recorded as “A (A: 5.0% by weight≦dissolution amount)”.
For `Oc1ccc2c3c(ccc2c1)Oc1ccc2cc(O)ccc2c1C31CCCCC1` [XBisN-10], the thermal decomposition temperature in data set [1] worked out at 400 °C. This molecule registered a glass transition point in data set [2] of 140 °C. Besides, the “solubility in MEK” value in data set [3] is “B (Evaluation B: 10% by weigh or more and less than 50% by weight)”. For the same molecule, in data set [4], the “Solubility test of compound in safe solvent PGME” value is given as “A (A: 5.0% by weight≦dissolution amount)” and the “Solubility test of compound in safe solvent PGMEA” value was “A (A: 5.0% by weight≦dissolution amount)”.
`Oc1ccc2c3c(ccc2c1)Oc1ccc2cc(O)ccc2c1C31c2ccccc2-c2ccccc21` [XBisN-11] showed a thermal decomposition temperature in data set [1] of 450 °C. For the same molecule, in data set [2], the glass transition point worked out at 145 °C. Further, in data set [3], the “solubility in MEK” value was “B (Evaluation B: 10% by weigh or more and less than 50% by weight)”. For the same molecule, in data set [4], the “Solubility test of compound in safe solvent PGME” value was “A (A: 5.0% by weight≦dissolution amount)” and the “Solubility test of compound in safe solvent PGMEA” value was “A (A: 5.0% by weight≦dissolution amount)”.
As for `Oc1ccc2c3c(ccc2c1)Oc1ccc2cc(O)ccc2c1C3c1ccc(C2c3c(ccc4cc(O)ccc34)Oc3ccc4cc(O)ccc4c32)cc1` [XBisN-12], the thermal decomposition temperature in data set [1] worked out at 410 °C. Also, in data set [2], the glass transition point was determined as 152 °C. The “solubility in MEK” value in data set [3] is “B (Evaluation B: 10% by weigh or more and less than 50% by weight)”. Besides, in data set [4], the “Solubility test of compound in safe solvent PGME” value is listed as “A (A: 5.0% by weight≦dissolution amount)” and the “Solubility test of compound in safe solvent PGMEA” value is reported as “A (A: 5.0% by weight≦dissolution amount)”.
In the case of `Oc1ccc2c3c(ccc2c1)Oc1ccc2cc(O)ccc2c1C3c1ccc(-c2ccc(C3c4c(ccc5cc(O)ccc45)Oc4ccc5cc(O)ccc5c43)cc2)cc1` [XBisN-13], the thermal decomposition temperature in data set [1] was determined as 410 °C. In data set [2], this molecule gave a glass transition point of 152 °C. In addition, in data set [3], the “solubility in MEK” value was “B (Evaluation B: 10% by weigh or more and less than 50% by weight)”. Besides, in data set [4], the “Solubility test of compound in safe solvent PGME” value was “A (A: 5.0% by weight≦dissolution amount)” and the “Solubility test of compound in safe solvent PGMEA” value was “A (A: 5.0% by weight≦dissolution amount)”.
On to `Oc1ccc2c3c(ccc2c1)Oc1ccc2cc(O)ccc2c1C3c1cc(C2c3c(ccc4cc(O)ccc34)Oc3ccc4cc(O)ccc4c32)cc(C2c3c(ccc4cc(O)ccc34)Oc3ccc4cc(O)ccc4c32)c1` [XBisN-14], for which the thermal decomposition temperature in data set [1] was determined as 410 °C. Also, the glass transition point in data set [2] worked out at 152 °C. Moreover, in data set [3], the “solubility in MEK” value was “B (Evaluation B: 10% by weigh or more and less than 50% by weight)”. Also, in data set [4], the “Solubility test of compound in safe solvent PGME” value was “A (A: 5.0% by weight≦dissolution amount)” and the “Solubility test of compound in safe solvent PGMEA” value is listed as “A (A: 5.0% by weight≦dissolution amount)”.
